Measurements reported in US20210254056A1, “IDENTIFICATION AND TARGETED MODULATION OF GENE SIGNALING NETWORKS” (CAMP4 THERAPEUTICS CORPORATION, priority 2017, published 2021).

Tested on: hepatocytes
Assay: RNA-seq of hepatocytes treated with Phase III failure compounds
Protocol: RNA-seq was performed to determine the effects of the compounds on hepatocytes.
Significance was determined by the criteria of FPKM≥0.5, a log 2(fold-change)≥1, and a […].

COc1nc(N)nc2c1ncn2[C@@H]1O[C@H](COP(=O)(N[C@@H](C)C(=O)OCC(C)(C)C)Oc2cccc3ccccc23)[C@@H](O)[C@@]1(C)O (stereo partly shown) [Bms-986094 (inx-189), Bms-986094]
significant modulation of expression of disease genes (RNA-seq, q≤0.05, hepatocytes, genes in the value or listed in the block): significantly (q≤0.05) modulate expression
A1BG expression, RNA-seq result (gene A1BG, hepatocytes): −0.1
AARS2 expression, RNA-seq result (gene AARS2, hepatocytes): 0.13
AASS expression, RNA-seq result (gene AASS, hepatocytes): −0.77
ABAT expression, RNA-seq result (gene ABAT, hepatocytes): −1.42
ABCA1 expression, RNA-seq result (gene ABCA1, hepatocytes): −0.43
ABCB4 expression, RNA-seq result (gene ABCB4, hepatocytes): −0.43
ABCB11 expression, RNA-seq result (gene ABCB11, hepatocytes): −0.76
ABCC2 expression, RNA-seq result (gene ABCC2, hepatocytes): −1.34
ABCC3 expression, RNA-seq result (gene ABCC3, hepatocytes): −0.96
ABCC6 expression, RNA-seq result (gene ABCC6, hepatocytes): −1.45
ABCD1 expression, RNA-seq result (gene ABCD1, hepatocytes): 0.08
ABCD3 expression, RNA-seq result (gene ABCD3, hepatocytes): −0.4
ABCG5 expression, RNA-seq result (gene ABCG5, hepatocytes): −0.11
ABCG8 expression, RNA-seq result (gene ABCG8, hepatocytes): −0.11
ABHD5 expression, RNA-seq result (gene ABHD5, hepatocytes): 0.25
ACACA expression, RNA-seq result (gene ACACA, hepatocytes): −2.09
ACACB expression, RNA-seq result (gene ACACB, hepatocytes): −1.86
ACAD9 expression, RNA-seq result (gene ACAD9, hepatocytes): −0.83
ACADSB expression, RNA-seq result (gene ACADSB, hepatocytes): −0.04
ACADVL expression, RNA-seq result (gene ACADVL, hepatocytes): 0.11
ACOT8 expression, RNA-seq result (gene ACOT8, hepatocytes): −0.33
ACOX2 expression, RNA-seq result (gene ACOX2, hepatocytes): −0.97
ACOX3 expression, RNA-seq result (gene ACOX3, hepatocytes): −1.75
ACSF3 expression, RNA-seq result (gene ACSF3, hepatocytes): −0.6
ACSL1 expression, RNA-seq result (gene ACSL1, hepatocytes): −0.12
ACSL3 expression, RNA-seq result (gene ACSL3, hepatocytes): 0.16
ACTG2 expression, RNA-seq result (gene ACTG2, hepatocytes): −0.13
ACTN1 expression, RNA-seq result (gene ACTN1, hepatocytes): −2.21
ADA expression, RNA-seq result (gene ADA, hepatocytes): −0.72
ADCK3 expression, RNA-seq result (gene ADCK3, hepatocytes): 0.18
ADK expression, RNA-seq result (gene ADK, hepatocytes): −1.7
ADSL expression, RNA-seq result (gene ADSL, hepatocytes): −0.96
AFP expression, RNA-seq result (gene AFP, hepatocytes): −0.16
AGK expression, RNA-seq result (gene AGK, hepatocytes): −0.43
AGL expression, RNA-seq result (gene AGL, hepatocytes): −0.97
AGPAT2 expression, RNA-seq result (gene AGPAT2, hepatocytes): −1.09
AGPS expression, RNA-seq result (gene AGPS, hepatocytes): −1.61
AGT expression, RNA-seq result (gene AGT, hepatocytes): 0.27
AGTR1 expression, RNA-seq result (gene AGTR1, hepatocytes): −0.07
AGXT expression, RNA-seq result (gene AGXT, hepatocytes): −0.66
AHI1 expression, RNA-seq result (gene AHI1, hepatocytes): −0.61
AHSG expression, RNA-seq result (gene AHSG, hepatocytes): −0.32
AK1 expression, RNA-seq result (gene AK1, hepatocytes): 0.62
AKR1C1 expression, RNA-seq result (gene AKR1C1, hepatocytes): −0.96
AKR1C2 expression, RNA-seq result (gene AKR1C2, hepatocytes): −1.2
AKR1C4 expression, RNA-seq result (gene AKR1C4, hepatocytes): −1.68
AKR1D1 expression, RNA-seq result (gene AKR1D1, hepatocytes): 0.17
ALAD expression, RNA-seq result (gene ALAD, hepatocytes): −0.69
ALAS1 expression, RNA-seq result (gene ALAS1, hepatocytes): 0.11
ALDH1B1 expression, RNA-seq result (gene ALDH1B1, hepatocytes): −0.86
ALDH2 expression, RNA-seq result (gene ALDH2, hepatocytes): −0.04
ALDH6A1 expression, RNA-seq result (gene ALDH6A1, hepatocytes): −0.08
ALDOA expression, RNA-seq result (gene ALDOA, hepatocytes): −0.48
ALDOB expression, RNA-seq result (gene ALDOB, hepatocytes): −0.27
ALG12 expression, RNA-seq result (gene ALG12, hepatocytes): −0.76
ALMS1 expression, RNA-seq result (gene ALMS1, hepatocytes): −1.35
ALPL expression, RNA-seq result (gene ALPL, hepatocytes): −1.05
AMACR expression, RNA-seq result (gene AMACR, hepatocytes): 0.28
AMPD3 expression, RNA-seq result (gene AMPD3, hepatocytes): 0.57
AMT expression, RNA-seq result (gene AMT, hepatocytes): −0.61
ANGPTL3 expression, RNA-seq result (gene ANGPTL3, hepatocytes): −0.73
ANKS4B expression, RNA-seq result (gene ANKS4B, hepatocytes): −0.39
ANKS6 expression, RNA-seq result (gene ANKS6, hepatocytes): −0.13
ANPEP expression, RNA-seq result (gene ANPEP, hepatocytes): −0.47
AOC2 expression, RNA-seq result (gene AOC2, hepatocytes): 0.32
AP3B1 expression, RNA-seq result (gene AP3B1, hepatocytes): −1.36
APC expression, RNA-seq result (gene APC, hepatocytes): −0.04
APOA1 expression, RNA-seq result (gene APOA1, hepatocytes): −0.05
APOA2 expression, RNA-seq result (gene APOA2, hepatocytes): 0.31
APOA5 expression, RNA-seq result (gene APOA5, hepatocytes): −0.18
APOB expression, RNA-seq result (gene APOB, hepatocytes): −0.78
APOC2 expression, RNA-seq result (gene APOC2, hepatocytes): 0
APOC3 expression, RNA-seq result (gene APOC3, hepatocytes): 0.42
APOE expression, RNA-seq result (gene APOE, hepatocytes): −0.56
APRT expression, RNA-seq result (gene APRT, hepatocytes): −0.42
AQP7 expression, RNA-seq result (gene AQP7, hepatocytes): −0.35
AQP9 expression, RNA-seq result (gene AQP9, hepatocytes): −0.05
ARG1 expression, RNA-seq result (gene ARG1, hepatocytes): −1.7
ARG2 expression, RNA-seq result (gene ARG2, hepatocytes): 0.62
ARL13B expression, RNA-seq result (gene ARL13B, hepatocytes): −0.67
ARSA expression, RNA-seq result (gene ARSA, hepatocytes): 0.27
ARSB expression, RNA-seq result (gene ARSB, hepatocytes): −0.25
ASL expression, RNA-seq result (gene ASL, hepatocytes): −0.24
ASNS expression, RNA-seq result (gene ASNS, hepatocytes): 1.61
ASPA expression, RNA-seq result (gene ASPA, hepatocytes): 1.55
ASXL1 expression, RNA-seq result (gene ASXL1, hepatocytes): −1.04
ATG7 expression, RNA-seq result (gene ATG7, hepatocytes): −1.54
ATIC expression, RNA-seq result (gene ATIC, hepatocytes): −0.74
ATM expression, RNA-seq result (gene ATM, hepatocytes): −0.5
ATP7A expression, RNA-seq result (gene ATP7A, hepatocytes): −0.03
ATP7B expression, RNA-seq result (gene ATP7B, hepatocytes): −0.8
ATP8B1 expression, RNA-seq result (gene ATP8B1, hepatocytes): −2.3
B2M expression, RNA-seq result (gene B2M, hepatocytes): 0.23
B9D2 expression, RNA-seq result (gene B9D2, hepatocytes): −0.83
BAAT expression, RNA-seq result (gene BAAT, hepatocytes): −1.93
BBOX1 expression, RNA-seq result (gene BBOX1, hepatocytes): −0.77
BBS10 expression, RNA-seq result (gene BBS10, hepatocytes): 0.59
BCHE expression, RNA-seq result (gene BCHE, hepatocytes): −0.67
BCKDHB expression, RNA-seq result (gene BCKDHB, hepatocytes): −1.21
BCKDK expression, RNA-seq result (gene BCKDK, hepatocytes): −0.42
BCO1 expression, RNA-seq result (gene BCO1, hepatocytes): 0.72
BCR expression, RNA-seq result (gene BCR, hepatocytes): −1.54
BLNK expression, RNA-seq result (gene BLNK, hepatocytes): 1.31
BLOC1S3 expression, RNA-seq result (gene BLOC1S3, hepatocytes): 0.01
BMPR1A expression, RNA-seq result (gene BMPR1A, hepatocytes): −0.9
BRAF expression, RNA-seq result (gene BRAF, hepatocytes): −0.44
BSCL2 expression, RNA-seq result (gene BSCL2, hepatocytes): 0.07
BTD expression, RNA-seq result (gene BTD, hepatocytes): −0.53
C4A expression, RNA-seq result (gene C4A, hepatocytes): 0.29
C9 expression, RNA-seq result (gene C9, hepatocytes): 0.55
C10orf10 expression, RNA-seq result (gene C10orf10, hepatocytes): 0.23
C10orf11 expression, RNA-seq result (gene C10orf11, hepatocytes): −2.08
C15orf41 expression, RNA-seq result (gene C15orf41, hepatocytes): −1.68
CA2 expression, RNA-seq result (gene CA2, hepatocytes): 0.9
CA5A expression, RNA-seq result (gene CA5A, hepatocytes): −1.34
CA12 expression, RNA-seq result (gene CA12, hepatocytes): 0.58
CAV1 expression, RNA-seq result (gene CAV1, hepatocytes): −0.74
CCND1 expression, RNA-seq result (gene CCND1, hepatocytes): −0.78
CD46 expression, RNA-seq result (gene CD46, hepatocytes): 0.43
CD81 expression, RNA-seq result (gene CD81, hepatocytes): 0.03
CD320 expression, RNA-seq result (gene CD320, hepatocytes): −0.96
CDAN1 expression, RNA-seq result (gene CDAN1, hepatocytes): 0.38
CDH1 expression, RNA-seq result (gene CDH1, hepatocytes): −1.79
CEP19 expression, RNA-seq result (gene CEP19, hepatocytes): −0.28
CEP83 expression, RNA-seq result (gene CEP83, hepatocytes): −0.39
CEP164 expression, RNA-seq result (gene CEP164, hepatocytes): 0.23
CEP290 expression, RNA-seq result (gene CEP290, hepatocytes): 0.21
CFB expression, RNA-seq result (gene CFB, hepatocytes): 0.29
CFHR2 expression, RNA-seq result (gene CFHR2, hepatocytes): 0.7
CHRM3 expression, RNA-seq result (gene CHRM3, hepatocytes): −2.02
CIDEC expression, RNA-seq result (gene CIDEC, hepatocytes): −0.6
CLDN1 expression, RNA-seq result (gene CLDN1, hepatocytes): −0.83
COG1 expression, RNA-seq result (gene COG1, hepatocytes): 0.5

Cl.OC[C@H]1NC[C@H](O)[C@@H](O)[C@H]1O [Deoxygalactonojirimycin hydrochloride]
significant changes in gene expression (RNA-seq of Table 36, FPKM≥0.5, log 2(fold-change)≥1, q-value≤0.05): not observed to cause any significant changes in gene expression
significant modulation of expression of any of the genes analyzed (RNA-seq, p≤0.05, hepatocytes): not observed to significantly modulate expression
